Like-named read-outs stand apart in the source and are kept apart here.
Tests used:
Assay in all cases: Kinase selectivity, P33-radiolabeled assay
Assay type in all cases: biochemical
Details in all cases: 10 μM ATP
ZAP70 = biological target: T1, ZAP70 (Homo sapiens, UniProt P43403)
T1 construct: purchased Reaction Biology Corp
T1 sequence (P43403 1-619): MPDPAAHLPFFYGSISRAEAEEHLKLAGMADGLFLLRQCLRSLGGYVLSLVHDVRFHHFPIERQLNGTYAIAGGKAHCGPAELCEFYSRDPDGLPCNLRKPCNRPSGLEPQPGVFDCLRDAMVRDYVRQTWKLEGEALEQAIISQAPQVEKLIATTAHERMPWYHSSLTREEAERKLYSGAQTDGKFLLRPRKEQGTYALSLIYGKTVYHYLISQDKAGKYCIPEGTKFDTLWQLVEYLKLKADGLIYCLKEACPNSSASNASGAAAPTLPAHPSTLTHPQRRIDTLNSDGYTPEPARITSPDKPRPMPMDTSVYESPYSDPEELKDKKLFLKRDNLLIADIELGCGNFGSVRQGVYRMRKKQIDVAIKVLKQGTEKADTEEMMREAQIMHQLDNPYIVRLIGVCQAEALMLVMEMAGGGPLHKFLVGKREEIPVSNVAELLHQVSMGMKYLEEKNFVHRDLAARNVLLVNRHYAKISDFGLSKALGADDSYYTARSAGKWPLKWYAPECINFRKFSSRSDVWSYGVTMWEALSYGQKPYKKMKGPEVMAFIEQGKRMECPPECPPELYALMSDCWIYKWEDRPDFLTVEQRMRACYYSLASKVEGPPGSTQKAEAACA
Method in brief: (§1)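 Each enzyme was exposed to 10 μM compound, with duplicate measurements, in reactions containing 10 μM ATP. Numbers are remaining activity as a percent of the vehicle (DMSO) signal.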

EPHA8 = biological target: T2, EPHA8 (Homo sapiens, UniProt P29322)
T2 construct: purchased Reaction Biology Corp
T2 sequence (P29322 28-1005): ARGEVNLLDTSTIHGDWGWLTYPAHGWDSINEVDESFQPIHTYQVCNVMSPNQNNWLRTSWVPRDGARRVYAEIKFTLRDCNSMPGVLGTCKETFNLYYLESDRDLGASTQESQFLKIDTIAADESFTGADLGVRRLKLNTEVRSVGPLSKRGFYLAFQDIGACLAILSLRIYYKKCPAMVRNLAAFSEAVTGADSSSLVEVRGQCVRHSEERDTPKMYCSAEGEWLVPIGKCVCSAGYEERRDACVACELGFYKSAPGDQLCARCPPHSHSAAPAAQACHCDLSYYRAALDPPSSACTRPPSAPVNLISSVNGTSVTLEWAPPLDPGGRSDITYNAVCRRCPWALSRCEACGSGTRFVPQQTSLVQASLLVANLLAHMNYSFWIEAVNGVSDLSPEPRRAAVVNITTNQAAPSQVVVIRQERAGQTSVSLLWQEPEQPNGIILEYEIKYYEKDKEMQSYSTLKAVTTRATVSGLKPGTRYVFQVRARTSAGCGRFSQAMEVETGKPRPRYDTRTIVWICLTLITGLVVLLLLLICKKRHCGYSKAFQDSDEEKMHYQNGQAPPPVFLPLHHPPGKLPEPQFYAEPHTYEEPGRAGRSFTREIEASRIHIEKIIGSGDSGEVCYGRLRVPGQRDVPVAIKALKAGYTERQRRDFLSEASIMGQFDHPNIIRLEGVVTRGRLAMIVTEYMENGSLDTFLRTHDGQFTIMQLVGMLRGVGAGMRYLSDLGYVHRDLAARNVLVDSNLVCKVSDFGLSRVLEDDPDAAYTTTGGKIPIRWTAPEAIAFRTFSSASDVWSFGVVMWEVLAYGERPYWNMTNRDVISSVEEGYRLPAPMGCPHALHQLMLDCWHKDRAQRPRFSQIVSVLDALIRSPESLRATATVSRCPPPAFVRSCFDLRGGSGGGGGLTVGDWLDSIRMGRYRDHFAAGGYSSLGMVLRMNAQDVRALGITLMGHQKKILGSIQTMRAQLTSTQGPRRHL
Method in brief: as §1

CDK5/p25 = biological target: T3, CDK5/p25 (Homo sapiens, UniProt Q00535)
T3 construct: purchased Reaction Biology Corp
T3 sequence (Q00535 whole entry): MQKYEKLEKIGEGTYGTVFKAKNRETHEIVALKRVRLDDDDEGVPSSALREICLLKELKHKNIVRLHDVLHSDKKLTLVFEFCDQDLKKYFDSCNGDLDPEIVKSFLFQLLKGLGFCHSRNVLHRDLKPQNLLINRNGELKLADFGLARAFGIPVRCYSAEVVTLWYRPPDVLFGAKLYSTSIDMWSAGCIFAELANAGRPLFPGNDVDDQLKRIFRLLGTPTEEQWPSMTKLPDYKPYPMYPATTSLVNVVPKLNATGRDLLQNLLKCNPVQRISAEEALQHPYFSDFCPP
T3 sequence (Q15078 99-307 partner limits assumed): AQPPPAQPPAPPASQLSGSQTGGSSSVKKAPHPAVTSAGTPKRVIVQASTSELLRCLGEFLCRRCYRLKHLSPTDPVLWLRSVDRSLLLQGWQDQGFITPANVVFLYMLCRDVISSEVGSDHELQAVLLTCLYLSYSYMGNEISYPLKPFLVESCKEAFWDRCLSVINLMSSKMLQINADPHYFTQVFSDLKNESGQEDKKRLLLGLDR
Method in brief: as §1

AXL = biological target: T4, AXL (Homo sapiens, UniProt P30530)
T4 construct: purchased Reaction Biology Corp
T4 sequence (P30530 26-894): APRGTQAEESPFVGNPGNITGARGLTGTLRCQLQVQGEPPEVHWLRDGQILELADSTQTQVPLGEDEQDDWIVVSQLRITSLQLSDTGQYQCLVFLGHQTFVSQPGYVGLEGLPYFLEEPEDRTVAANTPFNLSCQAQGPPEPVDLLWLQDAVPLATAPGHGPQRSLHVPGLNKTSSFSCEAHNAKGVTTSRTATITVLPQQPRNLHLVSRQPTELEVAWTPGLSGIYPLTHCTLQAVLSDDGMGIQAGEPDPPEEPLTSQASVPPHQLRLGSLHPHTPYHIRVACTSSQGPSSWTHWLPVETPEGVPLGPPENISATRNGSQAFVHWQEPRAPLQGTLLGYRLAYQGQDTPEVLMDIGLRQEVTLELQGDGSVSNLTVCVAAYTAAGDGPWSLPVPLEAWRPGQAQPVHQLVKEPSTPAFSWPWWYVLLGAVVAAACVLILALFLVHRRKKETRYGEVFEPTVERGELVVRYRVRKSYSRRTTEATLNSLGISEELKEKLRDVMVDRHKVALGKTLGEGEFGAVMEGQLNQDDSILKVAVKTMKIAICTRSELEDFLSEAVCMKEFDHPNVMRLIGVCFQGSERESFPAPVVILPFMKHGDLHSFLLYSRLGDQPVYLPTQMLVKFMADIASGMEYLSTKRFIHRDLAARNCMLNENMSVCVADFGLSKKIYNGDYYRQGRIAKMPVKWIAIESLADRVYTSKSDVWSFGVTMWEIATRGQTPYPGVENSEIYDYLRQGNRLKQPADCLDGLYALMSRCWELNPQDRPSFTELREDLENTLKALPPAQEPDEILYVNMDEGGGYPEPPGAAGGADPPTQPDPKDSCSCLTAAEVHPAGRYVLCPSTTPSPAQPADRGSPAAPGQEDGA
Method in brief: as §1

CDK9/cyclin T1 = biological target: T5, CDK9/cyclin T1 (Homo sapiens, UniProt P50750)
T5 construct: purchased Reaction Biology Corp
T5 sequence (P50750 whole entry): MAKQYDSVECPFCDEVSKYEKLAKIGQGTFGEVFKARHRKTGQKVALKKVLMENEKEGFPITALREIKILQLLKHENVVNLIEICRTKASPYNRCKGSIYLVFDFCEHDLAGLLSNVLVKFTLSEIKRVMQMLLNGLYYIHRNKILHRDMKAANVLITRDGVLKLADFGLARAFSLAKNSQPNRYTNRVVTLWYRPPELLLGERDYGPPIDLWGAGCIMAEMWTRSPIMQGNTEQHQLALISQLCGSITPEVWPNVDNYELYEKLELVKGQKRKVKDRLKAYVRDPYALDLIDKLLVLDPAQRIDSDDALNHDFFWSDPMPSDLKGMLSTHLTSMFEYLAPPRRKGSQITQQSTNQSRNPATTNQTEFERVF
T5 sequence (O60563 whole entry partner): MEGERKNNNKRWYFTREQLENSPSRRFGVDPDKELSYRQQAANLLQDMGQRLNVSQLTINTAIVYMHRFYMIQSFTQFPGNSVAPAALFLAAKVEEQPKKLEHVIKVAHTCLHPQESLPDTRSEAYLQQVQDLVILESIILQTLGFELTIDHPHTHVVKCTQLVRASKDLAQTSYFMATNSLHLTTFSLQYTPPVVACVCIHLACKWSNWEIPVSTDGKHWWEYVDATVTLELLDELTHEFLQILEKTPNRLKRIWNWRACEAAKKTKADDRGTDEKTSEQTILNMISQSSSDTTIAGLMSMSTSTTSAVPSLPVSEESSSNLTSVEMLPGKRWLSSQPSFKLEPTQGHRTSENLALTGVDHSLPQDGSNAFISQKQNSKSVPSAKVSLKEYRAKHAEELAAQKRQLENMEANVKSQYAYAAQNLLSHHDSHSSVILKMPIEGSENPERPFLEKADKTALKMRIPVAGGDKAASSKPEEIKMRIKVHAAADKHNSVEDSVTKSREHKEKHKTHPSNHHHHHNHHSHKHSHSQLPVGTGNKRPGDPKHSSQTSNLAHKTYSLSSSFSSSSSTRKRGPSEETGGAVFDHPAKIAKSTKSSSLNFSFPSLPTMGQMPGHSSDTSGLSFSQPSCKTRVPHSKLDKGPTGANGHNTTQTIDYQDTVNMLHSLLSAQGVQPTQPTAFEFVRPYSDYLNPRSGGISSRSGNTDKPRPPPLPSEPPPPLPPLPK
Method in brief: as §1

MEKK1 = biological target: T6, MEKK1 (Homo sapiens, UniProt Q13233)
T6 construct: purchased Reaction Biology Corp
T6 sequence (Q13233 whole entry): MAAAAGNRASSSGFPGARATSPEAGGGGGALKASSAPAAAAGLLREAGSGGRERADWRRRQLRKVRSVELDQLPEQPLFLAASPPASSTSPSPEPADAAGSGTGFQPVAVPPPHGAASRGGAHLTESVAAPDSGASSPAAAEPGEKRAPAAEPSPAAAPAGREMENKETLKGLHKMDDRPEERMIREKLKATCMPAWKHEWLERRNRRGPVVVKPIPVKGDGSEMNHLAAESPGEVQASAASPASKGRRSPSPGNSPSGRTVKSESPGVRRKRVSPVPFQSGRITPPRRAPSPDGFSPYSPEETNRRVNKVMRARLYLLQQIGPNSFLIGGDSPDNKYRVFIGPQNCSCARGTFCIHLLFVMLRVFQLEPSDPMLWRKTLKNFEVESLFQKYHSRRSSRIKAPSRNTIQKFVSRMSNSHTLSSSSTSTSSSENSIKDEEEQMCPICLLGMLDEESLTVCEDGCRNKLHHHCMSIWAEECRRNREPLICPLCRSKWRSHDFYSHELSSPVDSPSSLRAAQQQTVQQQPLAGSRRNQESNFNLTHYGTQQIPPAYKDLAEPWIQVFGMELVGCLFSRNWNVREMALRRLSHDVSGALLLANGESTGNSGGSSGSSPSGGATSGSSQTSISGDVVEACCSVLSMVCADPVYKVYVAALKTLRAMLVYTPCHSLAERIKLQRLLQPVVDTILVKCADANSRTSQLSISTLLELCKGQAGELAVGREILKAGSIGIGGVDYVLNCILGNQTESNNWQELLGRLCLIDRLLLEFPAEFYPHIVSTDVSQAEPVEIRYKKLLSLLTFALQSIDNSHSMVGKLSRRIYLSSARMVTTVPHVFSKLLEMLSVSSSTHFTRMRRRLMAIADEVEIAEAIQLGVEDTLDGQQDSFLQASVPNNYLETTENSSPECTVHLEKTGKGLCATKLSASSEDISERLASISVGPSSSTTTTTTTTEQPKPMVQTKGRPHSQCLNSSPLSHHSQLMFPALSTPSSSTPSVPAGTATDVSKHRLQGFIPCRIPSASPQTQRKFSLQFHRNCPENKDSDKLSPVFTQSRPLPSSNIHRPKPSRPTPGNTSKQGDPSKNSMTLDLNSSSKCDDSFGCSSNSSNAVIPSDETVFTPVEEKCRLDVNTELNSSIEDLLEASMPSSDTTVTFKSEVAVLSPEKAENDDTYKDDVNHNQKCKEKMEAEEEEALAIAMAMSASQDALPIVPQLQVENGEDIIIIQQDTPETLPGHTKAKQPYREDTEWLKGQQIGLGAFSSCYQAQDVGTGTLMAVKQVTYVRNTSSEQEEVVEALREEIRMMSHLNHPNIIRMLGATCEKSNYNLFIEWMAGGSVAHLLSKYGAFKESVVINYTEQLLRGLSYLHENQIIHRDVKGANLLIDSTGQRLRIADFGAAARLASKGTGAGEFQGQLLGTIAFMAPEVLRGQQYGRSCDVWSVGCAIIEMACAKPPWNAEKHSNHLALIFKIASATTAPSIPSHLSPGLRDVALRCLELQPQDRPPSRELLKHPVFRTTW
Method in brief: as §1

[1] = read-out: % Enzyme Activity (relative to DMSO controls) AVG
[2] = read-out: % Enzyme Activity (relative to DMSO controls) Data 1
[3] = read-out: % Enzyme Activity (relative to DMSO controls) Data 2

CC(C)(C)C(=O)N1N=CC[C@H]1c1ccccc1 [GSK′963]
remaining activity at 10 µM (ZAP70; [1]): 111%
remaining activity at 10 µM (ZAP70; [2]): 111%
remaining activity at 10 µM (ZAP70; [3]): 111%
remaining activity at 10 µM (EPHA8; [1]): 96.6%
remaining activity at 10 µM (EPHA8; [2]): 97.5%
remaining activity at 10 µM (EPHA8; [3]): 95.7%
remaining activity at 10 µM (CDK5/p25; [1]): 97%
remaining activity at 10 µM (CDK5/p25; [2]): 98.1%
remaining activity at 10 µM (CDK5/p25; [3]): 95.8%
remaining activity at 10 µM (AXL; [1]): 92.9%
remaining activity at 10 µM (AXL; [2]): 91.2%
remaining activity at 10 µM (AXL; [3]): 94.6%
remaining activity at 10 µM (CDK9/cyclin T1; [1]): 108%
remaining activity at 10 µM (CDK9/cyclin T1; [2]): 112%
remaining activity at 10 µM (CDK9/cyclin T1; [3]): 105%
remaining activity at 10 µM (MEKK1; [1]): 97.3%
remaining activity at 10 µM (MEKK1; [2]): 101%
remaining activity at 10 µM (MEKK1; [3]): 94%
